Measured values as given in ChEMBL document CHEMBL4613212, “Insights of synthetic analogues of anti-leprosy agents” (Bioorg Med Chem, 2019).
≈ marks a conversion by molar mass, not a printed value.

Tests used:
Type in all cases: functional
[1] = test system: Mycobacterium leprae; experiment: Anti-leprotic activity against Mycobacterium leprae infected in CBA mouse assessed as number of Mycobacterium leprae in paw pads at 30 mg/kg administrated 5 times a week and measured 7.5 months post infection (reference value: 3.91 +/- 0.33 10^5)
[2] = test system: Mycobacterium leprae; experiment: Anti-leprotic activity against Mycobacterium leprae infected in CBA mouse assessed as number of Mycobacterium leprae in paw pads at 10 mg/kg administrated 5 times a week and measured 7.5 months post infection (reference value: 3.91 +/- 0.33 10^5)
[3] = test system: Mycobacterium leprae; experiment: Anti-leprotic activity against Mycobacterium leprae infected in 538 CBA mouse assessed as number of Mycobacterium leprae in paw pads at 4 mg/kg administrated via gastric tube 5 times a week and measured 7 months post infection
[4] = test system: Mycobacterium leprae; experiment: Anti-leprotic activity against Mycobacterium leprae infected in BALB/c mouse assessed as time delay in bacterial multiplication in footpad at 0.011 g/100g of diet administered via feed starting 60 or 75 day post infection up to 90 days by Shepard's kinetic method
[5] = test system: Mycobacterium leprae; experiment: Anti-leprotic activity against Mycobacterium leprae infected in BALB/c mouse assessed as time delay in bacterial multiplication in footpad at 0.0087 g/100g of diet administered via feed starting 60 or 75 day post infection up to 90 days by Shepard's kinetic method
[6] = test system: Mycobacterium tuberculosis; experiment: Antimycobacterial activity against Mycobacterium tuberculosis H37Rv infected in CF-1 mouse assessed as change in survival time at 2 mg/kg administrated daily for 14 days with food relative to control
[7] = test system: Mycobacterium tuberculosis; experiment: Antimycobacterial activity against Mycobacterium tuberculosis H37Rv infected in CF-1 mouse assessed as change in survival time at 16 mg/kg administrated daily for 14 days with food relative to control
[8] = test system: Mycobacterium tuberculosis; experiment: Antimycobacterial activity against Mycobacterium tuberculosis H37Rv infected in CF-1 mouse assessed as change in survival time at 9 mg/kg administrated daily for 14 days with food relative to control
[9] = test system: Mycobacterium tuberculosis; experiment: Antimycobacterial activity against Mycobacterium tuberculosis H37Rv infected in CF-1 mouse assessed as change in survival time at 5 mg/kg administrated daily for 14 days with food relative to control
[10] = test system: Mycobacterium leprae; experiment: Antimicrobial activity against Mycobacterium leprae
[11] = test system: Mycobacterium leprae; experiment: Anti-leprotic activity against Mycobacterium leprae primary cultures at 4 weeks assessed as ATP level per 10^7 cells at 5.0 mg/L measured by bioluminescence assay (reference value: 314 +/- 46 pg)
[12] = test system: Mycobacterium leprae; experiment: Anti-leprotic activity against Mycobacterium leprae subcultures at 4 weeks assessed as ATP level per 10^7 cells at 1.0 mg/L measured by bioluminescence assay (reference value: 462 +/- 64 pg)
[13] = test system: Mycobacterium leprae; experiment: Anti-leprotic activity against Mycobacterium leprae subcultures at 4 weeks assessed as [3H]thymidine uptake per 5 times 10^7 cells at 0.5 mg/L (reference value: 1.28 +/- 0.14 pmol)
[14] = test system: Mycobacterium leprae; experiment: Anti-leprotic activity against Mycobacterium leprae primary cultures at 4 weeks assessed as [3H]thymidine uptake per 5 times 10^7 cells at 5.0 mg/L (reference value: 0.95 +/- 0.01 pmol)
[15] = test system: Mycobacterium leprae; experiment: Anti-leprotic activity against Mycobacterium leprae primary cultures at 4 weeks assessed as ATP level per 10^7 cells at 1.0 mg/L measured by bioluminescence assay (reference value: 314 +/- 46 pg)
[16] = test system: Mycobacterium leprae; experiment: Anti-leprotic activity against Mycobacterium leprae primary cultures at 4 weeks assessed as ATP level per 10^7 cells at 0.5 mg/L measured by bioluminescence assay (reference value: 314 +/- 46 pg)
[17] = test system: Mycobacterium leprae; experiment: Anti-leprotic activity against Mycobacterium leprae subcultures at 4 weeks assessed as ATP level per 10^7 cells at 0.5 mg/L measured by bioluminescence assay (reference value: 462 +/- 64 pg)
[18] = test system: Mycobacterium leprae; experiment: Anti-leprotic activity against Mycobacterium leprae subcultures at 4 weeks assessed as [3H]thymidine uptake per 5 times 10^7 cells at 10.0 mg/L (reference value: 1.28 +/- 0.14 pmol)
[19] = test system: Mycobacterium leprae; experiment: Anti-leprotic activity against Mycobacterium leprae primary cultures at 4 weeks assessed as [3H]thymidine uptake per 5 times 10^7 cells at 15.0 mg/L (reference value: 0.95 +/- 0.01 pmol)
[20] = test system: Mycobacterium leprae; experiment: Anti-leprotic activity against Mycobacterium leprae subcultures at 4 weeks assessed as [3H]thymidine uptake per 5 times 10^7 cells at 1.0 mg/L (reference value: 1.28 +/- 0.14 pmol)
[21] = test system: Mycobacterium leprae; experiment: Anti-leprotic activity against Mycobacterium leprae subcultures at 4 weeks assessed as ATP level per 10^7 cells at 20.0 mg/L measured by bioluminescence assay (reference value: 462 +/- 64 pg)
[22] = test system: Mycobacterium leprae; experiment: Anti-leprotic activity against Mycobacterium leprae subcultures at 4 weeks assessed as ATP level per 10^7 cells at 10.0 mg/L measured by bioluminescence assay (reference value: 462 +/- 64 pg)
[23] = test system: Mycobacterium leprae; experiment: Anti-leprotic activity against Mycobacterium leprae subcultures at 4 weeks assessed as ATP level per 10^7 cells at 5.0 mg/L measured by bioluminescence assay (reference value: 462 +/- 64 pg)
[24] = test system: Mycobacterium leprae; experiment: Anti-leprotic activity against Mycobacterium leprae subcultures at 4 weeks assessed as [3H]thymidine uptake per 5 times 10^7 cells at 15.0 mg/L (reference value: 1.28 +/- 0.14 pmol)
[25] = test system: Mycobacterium leprae; experiment: Anti-leprotic activity against Mycobacterium leprae primary cultures at 4 weeks assessed as [3H]thymidine uptake per 5 times 10^7 cells at 0.5 mg/L (reference value: 0.95 +/- 0.01 pmol)
[26] = test system: Mycobacterium leprae; experiment: Anti-leprotic activity against Mycobacterium leprae primary cultures at 4 weeks assessed as ATP level per 10^7 cells at 20.0 mg/L measured by bioluminescence assay (reference value: 314 +/- 46 pg)
[27] = test system: Mycobacterium leprae; experiment: Anti-leprotic activity against Mycobacterium leprae primary cultures at 4 weeks assessed as [3H]thymidine uptake per 5 times 10^7 cells at 10.0 mg/L (reference value: 0.95 +/- 0.01 pmol)
[28] = test system: Mycobacterium leprae; experiment: Anti-leprotic activity against Mycobacterium leprae primary cultures at 4 weeks assessed as ATP level per 10^7 cells at 10.0 mg/L measured by bioluminescence assay (reference value: 314 +/- 46 pg)
[29] = test system: Mycobacterium leprae; experiment: Anti-leprotic activity against Mycobacterium leprae primary cultures at 4 weeks assessed as [3H]thymidine uptake per 5 times 10^7 cells at 20.0 mg/L (reference value: 0.95 +/- 0.01 pmol)
[30] = test system: Mycobacterium leprae; experiment: Anti-leprotic activity against Mycobacterium leprae primary cultures at 4 weeks assessed as ATP level per 10^7 cells at 15.0 mg/L measured by bioluminescence assay (reference value: 314 +/- 46 pg)
[31] = test system: Mycobacterium leprae; experiment: Anti-leprotic activity against Mycobacterium leprae subcultures at 4 weeks assessed as [3H]thymidine uptake per 5 times 10^7 cells at 5.0 mg/L (reference value: 1.28 +/- 0.14 pmol)
[32] = test system: Mycobacterium leprae; experiment: Anti-leprotic activity against Mycobacterium leprae subcultures at 4 weeks assessed as [3H]thymidine uptake per 5 times 10^7 cells at 20.0 mg/L (reference value: 1.28 +/- 0.14 pmol)
[33] = test system: Mycobacterium leprae; experiment: Anti-leprotic activity against Mycobacterium leprae subcultures at 4 weeks assessed as ATP level per 10^7 cells at 15.0 mg/L measured by bioluminescence assay (reference value: 462 +/- 64 pg)
[34] = test system: Mycobacterium leprae; experiment: Anti-leprotic activity against Mycobacterium leprae primary cultures at 4 weeks assessed as [3H]thymidine uptake per 5 times 10^7 cells at 1.0 mg/L (reference value: 0.95 +/- 0.01 pmol)

Q: For `CCN(CC)C(=S)Sc1ncc([N+](=O)[O-])cc1C#N`, which Activity [1] is on record?
A: 0.06 ×10⁵ No_unit

Q: And the Activity [2]?
A: 0.56 ×10⁵ No_unit

Q: What about the Activity [3] of the same compound?
A: 0.042 ×10⁷ No_unit

Q: For `CC(=O)Nc1ccc(S(=O)(=O)c2ccc(NC(C)=O)cc2O)cc1`, which Time [4] is on record?
A: 126 days

Q: Which Time [5] does the source give for `Nc1ccc(Sc2ccc(N)cc2)cc1` [4,4'-THIODIANILINE] here?
A: 68 days

Q: `Clc1ccc(/N=N/c2ccc(NCCCN3CCCCC3)c3c2CCCC3)cc1` was tested. Which MST [6] did it give?
A: 11 days

Q: And the MST [7]?
A: 78 days

Q: What about the MST [8] of the same compound?
A: 42 days

Q: What about the MST [9] of the same compound?
A: 33 days

Q: What does the source list for `CCOc1cc(Cc2cnc(N)nc2N)cc(OCC)c1-n1cccc1` [EPIROPRIM]?
A: MIC [10]: 10 µg/mL (≈ 28.3 µM); Activity [11]: 283 pg; Activity [12]: 0.95 pg; Activity [13]: 0.413 pmol; Activity [14]: 0.73 pmol; Activity [15]: 331 pg; Activity [16]: 325 pg; Activity [17]: 0.82 pg; Activity [18]: 0 pmol; Activity [19]: 0 pmol; Activity [20]: 0.45 pmol; Activity [21]: 0 pg; Activity [22]: 0 pg; Activity [23]: 317 pg; Activity [24]: 0 pmol; Activity [25]: 1.12 pmol; Activity [26]: 0 pg; Activity [27]: 0 pmol; Activity [28]: 0 pg; Activity [29]: 0 pmol; Activity [30]: 0 pg; Activity [31]: 0.88 pmol; Activity [32]: 0 pmol; Activity [33]: 0 pg; Activity [34]: 1.44 pmol
